Assay results from article PMC6872167, “An odorant receptor from Anopheles gambiae that demonstrates enantioselectivity to the plant volatile, linalool” (PLoS ONE, 2019).

Columns and labels:
[1] = target: T1, Odorant receptor 29 (AgamOr29) (Anopheles gambiae, UniProt A0A1S4H074); assay: two-electrode voltage clamp of Xenopus oocytes, concentration-response; type: cell-based
T1 construct: coding region, expressed with AgamOrco in Xenopus laevis oocytes; with AgamOrco
T1 sequence (A0A1S4H074 1-384): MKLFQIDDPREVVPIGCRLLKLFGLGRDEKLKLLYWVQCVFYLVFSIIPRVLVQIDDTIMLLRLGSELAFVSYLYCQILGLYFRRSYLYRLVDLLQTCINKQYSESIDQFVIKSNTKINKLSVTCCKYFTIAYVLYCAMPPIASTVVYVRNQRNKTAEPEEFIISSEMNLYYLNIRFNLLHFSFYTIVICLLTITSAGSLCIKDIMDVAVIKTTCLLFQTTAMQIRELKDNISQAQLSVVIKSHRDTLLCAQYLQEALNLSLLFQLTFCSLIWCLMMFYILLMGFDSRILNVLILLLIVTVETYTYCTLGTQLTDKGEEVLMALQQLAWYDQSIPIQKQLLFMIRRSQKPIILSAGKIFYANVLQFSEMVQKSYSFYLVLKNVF
T1 sequence (Q7QCC7 1-478 partner): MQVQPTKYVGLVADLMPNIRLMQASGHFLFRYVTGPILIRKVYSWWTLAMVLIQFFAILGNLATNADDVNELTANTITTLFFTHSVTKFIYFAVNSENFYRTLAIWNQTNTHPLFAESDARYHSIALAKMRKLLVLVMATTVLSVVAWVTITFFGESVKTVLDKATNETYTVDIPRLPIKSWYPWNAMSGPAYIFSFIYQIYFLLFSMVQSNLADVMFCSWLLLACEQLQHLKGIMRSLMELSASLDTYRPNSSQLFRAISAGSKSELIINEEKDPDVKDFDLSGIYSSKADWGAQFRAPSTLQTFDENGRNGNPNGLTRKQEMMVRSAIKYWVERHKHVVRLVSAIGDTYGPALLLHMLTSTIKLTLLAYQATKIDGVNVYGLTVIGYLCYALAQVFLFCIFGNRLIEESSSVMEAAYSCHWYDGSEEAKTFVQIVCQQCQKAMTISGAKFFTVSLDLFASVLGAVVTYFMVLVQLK
Description: two-electrode voltage clamp of Xenopus oocytes, concentration-response on Odorant receptor 29 (AgamOr29) | to (R)-(–)-linalool (left)and (+/–) linalool (right).

[2] = target: T1, Odorant receptor 29 (AgamOr29); assay: two-electrode voltage clamp of Xenopus oocytes, single concentration […]; type: cell-based

Row | EC50 [1] [µM] | Compound | two-electrode voltage clamp of Xenopus oocytes, single concentration 10^-4 M [2]
1 | ~5.7 | C=CC(C)(O)CCC=C(C)C (racemic) [(+/–) linalool] | 
2 | ~8 | C=C[C@](C)(O)CCC=C(C)C [(R)-(–)-linalool] | 
3 |  | CCC(C)(O)CCCC(C)C (stereo not drawn) [tetrahydro linalool] | tetrahydro linalool elicited a moderate, but repeatable response from AgamOr29, likely due to its structural similarity to linalool
